Converted amounts (≈) assume the structure as drawn. “And” between values parts separate entries of the source, which are not always exact repeats. Identical values can stand only once. Like-named read-outs stand apart in the source and are kept apart here.
What was measured:
[1] = water with a pH of 7.8; cited from earlier work
[2] = cited from earlier work
[3] = design: key: —: Cannot be detected; settings: DAI ref 14; cited from earlier work
[4] = design: method as in ref 9 = [9]; 9 Chou F 2005 Pharmacokinetics of daidzein and its precursors . Shenyang, People's Republic of China : Shenyang Pharmaceutical University .; settings: rats, intragastric administration of DAI solution; cited from earlier work
[5] = at pH 7.4, 410 K, DAI ref 16, cited from earlier work
[6] = Solubility in water, methanol, cyclohexane and ethyl acetate by HPLC; format: physicochemical
Method: (§1) Mobile phase: acetonitrile-methanol (1 : 1); flow rate: 1.0 ml min^−1; injection volume: 20 µl; wavelength: 230 nm or 254 nm; column temperature: 25°C.
Five millilitres of water, methanol, cyclohexane and ethyl acetate was added to test tubes, and then samples (DD4 or DD5) were added. These solutions were shaken at constant temperature (37 ± 0.1)°C for 48 h. The supernatant was taken to determine its solubility with HPLC [14]. Solutions of tested sample beyond the linear concentration range were diluted with methanol for determination.

[7] = Apparent lipid-water (n-octanol/water) partition coefficient by HPLC; format: physicochemical; design: key: —: Cannot be detected
Method: as §1
DD4 (5.1 mg) was dissolved in 50 ml of water-saturated n-octanol solution to prepare a solution with a concentration of 102 mg l^−1. Solution (2 ml) and water-saturated n-octanol solution (2 ml) were added to a plugged 10 ml tube. The prepared sample solution was placed in a shaker and shaken to equilibrium overnight in the dark at constant temperature (37 ± 0.1)°C. The lower aqueous phase was taken and analysed by HPLC after centrifugation at a speed of 3000 r min^−1 for 10 min. The drug concentration in the aqueous phase (ρw) was calculated via the standard curve according to the peak area. DD5 (4.5 mg) was dissolved in 50 ml of water-saturated n-octanol solution to prepare a solution with a concentration of 90 mg l^−1. Other methods were the same as those for DD4 [14].

[8] = system: human aortic vascular smooth muscle cells (HAVSMCs); assay: Drug absorption in human aortic vascular smooth muscle cells (HPLC of cell supernatant); format: in vitro ADME; settings: for value (drug concentration in cell supernatant): dosing DD4 171, DD5 120 ug/mL
Method: (§2) HAVSMCs were obtained from resuscitation in cryopreservation tubes. HAVSMCs at passages 3–10 were seeded at a density of 10^5 in 6-well plates, 2 ml per well. The cells were cultured at 37°C in a 5% carbon dioxide incubator for 24 h to adhere to the cell wall; cells were cultured in serum-free DMEM for 24 h. The cells were synchronized, the supernatant was carefully aspirated and different concentrations of drug solution were added to the DMEM culture medium containing 10% serum. Equal amounts of DMEM culture medium without drugs were added to the blank group. Each group was set up in triplicate and further cultured. The cultures were terminated at 0.5, 1, 6, 12, 24 or 48 h. Cell culture supernatants were collected and stored at −80°C for further analysis.
Cell supernatants were thawed at room temperature and vortexed for 1 min. To 50 µl of the cell supernatant, 50 µl of methanol was added and the mixtures were mixed uniformly by eddy current. Ethyl acetate (1 ml) was added to the mixture and vortexed for 3 min. Ethyl acetate was separated by cooled centrifugation at 3000 r min^−1 and dried with nitrogen, and the residue was dissolved in 500 µl of methanol before injection for analysis.
Mobile phase: methanol-phosphoric acid solution (0.4%) (1 : 1); flow rate: 0.5 ml min^−1; injection volume: 10 µl; wavelength: 230 nm or 254 nm; column temperature 25°C.
Cell supernatants were thawed and vortexed for 1 min. Drug-added supernatant (50 µl) was treated by the same method as the pre-treatment of cell samples described in §4.2.
The absorption and utilization rates of DD4 and DD5 were calculated by the formula (6.1), with the reduction of drug concentration in the cell culture medium taken as the absorption amount of drug by cells. The initial drug concentration was c0, and the concentration in the cell supernatant at other time points is denoted as c. […] With increasing time, the cell absorption rate of the drug was maintained at about 60%. The main reason for the differences in absorption of DD4 and DD5 might be the length of the substituent group (methyl, ethyl) on the 7-position:6.1 absorption rate=c0−c/c0×100%.

[9] = system: human aortic vascular smooth muscle cells (HAVSMCs); assay: Cell metabolism in HAVSMCs by HPLC-MS; format: in vitro ADME
Method: as §2
Mobile phase: methanol-formic acid (1 : 1); flow rate: 0.5 ml min^−1; injection volume: 10 µl; wavelength: 254 nm; column temperature: 25°C.
A triple quadrupole tandem precision mass spectrometer (Agilent 6430) with an […] source and a negative ion mode was used for precise determination. The full mass spectrum data were obtained in the range of m/z 50–1000. The optimal mass spectrum parameters were as follows: the capillary voltage was 4.0 kV; the injection cone voltage was 35 V; the desolvation gas flow (N2) rate was 900 l h^−1; the injection cone gas flow (N2) rate was 50 l h^−1; the desolvation temperature was 350°C; the ion source temperature was 150°C; the collision gas in collision induced dissociation (CID) mode was helium with high purity; the inlet pressure was set at 40 psi; the CID collision energy of the standard was 5–35 eV and the cracking voltage was 135 V.
The cell supernatant was thawed and vortexed for 0.5 min. Cell supernatant (50 µl) and […] (50 µl) were added to a 2 ml centrifuge tube and vortexed for 3 min. Ammonium dihydrogen phosphate (100 µl, 0.4%) and 1 ml of ethyl acetate were added, and the sample was vortexed for 3 min. The mixture was centrifuged at 3000 r min^−1 for 10 min. The supernatant (95 µl) was aspirated and dried by N2 flow. […] (500 µl) was added and the sample was vortexed for 0.5 min. After filtration over a 0.45 µm organic membrane, HPLC-MS analysis was carried out.
Cells from the −80°C stock were thawed at room temperature, and 1 ml of thawed cell lysate was added into each well of a 6-well plate. From each group, 0.5 ml of cell lysate was taken; 50 µl of […], 100 µl of ammonium dihydrogen phosphate (0.4%) and 1 ml of ethyl acetate were added and samples were vortexed for 3 min. Lysate (95 µl) was aspirated and dried by N2 flow. […] (500 µl) was added and samples were vortexed for 0.5 min. After filtration over a 0.45 µm organic membrane, HPLC-MS analysis was carried out.

[10] = system: vascular smooth muscle cells; assay: Cytotoxicity by MTT assay; format: cell-based; settings: 300 ug/mL
Source text: […] 2) Please list the full name of “HAVSMCs”at the first time it appears.
We have listed the full name of “HAVSMCs” as its first appearance in the abstract of […]
[…] 3) Please number the carbon atoms of the compounds.
[…] 4) Line 19-36: The abstract can reflect all aspects of the work, but it is a bit long and too detailed. The authors should rephrase the abstract for a more concise […]
We have rewritten the section of abstract and tried to make it as concise as possible.
[…] 5) As far as I'm aware, daidzein as a biologically active natural product has been used for curing angiocardiopathy. But whether the synthesized daidzeinnapsylates have significant toxic side effects remain unknown. So, in vitro cytotoxicity […]
A549, HeLa cells) need be performed.
The cytotoxicity of DD4 and DD5 was determined by MTT assay in our lab before […]
the two compounds was less than 10% at the concentration of 300 ug/mL. It is considered that the compound is not toxic to vascular smooth muscle cells at this concentration. Therefore, the dosing concentrations of DD4 and DD5 were 171 and 120 ug/mL, respectively, to investigate the absorption and metabolism of drugs by […]
6)Please attach the 1H-NMR specturm of DD4 and DD5 in supporting information;

[11] = Solubility in water, methanol, cyclohexane and ethyl acetate by HPLC; format: physicochemical; settings: organic solvent or mixture, thermodynamic from solid, head: hexane (text: cyclohexane), 37 °C, shaken 48 h
[12] = design: method as in ref 23 = [23]; 23 Zhang ZT , Liu QG , Liu XH , Yang BL , Duan YF , Gao ZW , Yu KB 2002 Synthesis, crystal structure and biological activity of monomethylated daidzein sulfonates . Acta Chim. Sinica 60 , 1846 – 1853; settings: compared with DAI; cited from earlier work

O=C(O)COc1ccc(-c2coc3cc(OCCO)ccc3c2=O)cc1 [4-oxoacetic acid-7-hydroxyethoxy-daidzein]
solubility in water [1]: 54.28 µg/mL (≈ 152 µM)

O=c1c(-c2ccc(O)cc2)coc2cc(O)ccc12 [DAI, 4′, 7-dihydroxyisoflavone]
solubility in ethyl acetate ([2]; Table 5, DAI ref 16): 0.13 ± 0.11 µg/mL (≈ 0.511 µM) | solubility in cyclohexane ([2]; cyclohexane, DAI ref 14): could not be determined | solubility in water ([2]; water, DAI ref 14): too poor to be detected | lgP [3]: —^b | absolute bioavailability calculated on the basis of free DAI [4]: 12.8% | dissociation constant (percentage of drug prototypes) calculated value [5]: 10.41% | molecular polar surface area/two-dimensional calculated value [5]: 66.76 Å^2 | molecular surface area/three-dimensional calculated value [5]: 315.07 Å^2 | polarizability calculated value [5]: 26.21 | refractivity calculated value [5]: 69.70 | H-bond accepter site ([5]; first figure of site/count): 5 | H-bond accepter count ([5]; second figure of site/count): 4

COc1ccc2c(=O)c(-c3ccc(OS(=O)(=O)c4ccc5ccccc5c4)cc3)coc2c1 [DD4]
solubility at 48 h ([6]; ethyl acetate, 37 °C, shaken 48 h, HPLC, read-out: solubility ethanoate (ethyl acetate)): 36300 µg/mL (≈ 79200 µM) | solubility at 48 h ([6]; organic solvent or mixture, thermodynamic from solid, methanol, 37 °C, shaken 48 h, HPLC, read-out: solubility methanol): 824 ± 19.3 µg/mL (≈ 1800 µM) | solubility at 48 h ([6]; thermodynamic from solid, water, 37 °C, shaken 48 h, HPLC, read-out: solubility water): < 0.059 µg/mL | solubility in water ([6]; water, 37 °C): too poor to be detected | solubility at 48 h ([6]; water, Table 5, read-out: solubility in water): < 0.059 µg/mL | lgP ([7]; 37 °C, HPLC of aqueous phase): —^b | apparent lipid-hydro partition coefficient found ([7]; HPLC): —^b | time of peak (maximum) absorption [8]: 1 h | value (drug concentration in cell supernatant) ([8]; 0.5 h): 96.97 ± 15.57 µg/mL | value (drug concentration in cell supernatant) ([8]; 1 h): 20.62 µg/mL and 20.62 ± 0.71 µg/mL | value (drug concentration in cell supernatant) ([8]; 6 h): 110.70 ± 4.98 µg/mL | value (drug concentration in cell supernatant) ([8]; 12 h): 82.48 ± 3.00 µg/mL | value (drug concentration in cell supernatant) ([8]; 24 h): 71.01 ± 34.97 µg/mL | value (drug concentration in cell supernatant) ([8]; 48 h): 111.28 ± 1.72 µg/mL | maximum cell absorption rate relative to DAI ([8]; compared with DAI): 4.3 times and 4.3–4.5 times | absorptivity (maximum absorption rate) ([8]; maximum (at 1 h)): 87.97% | metabolite identified (chemical name) ([9]; HAVSMC lysate, 24 h incubation, HPLC-MS negative ion mode): daidzein-4'-naphthalene sulphonate | metabolites found in cell lysate ([9]; HAVSMCs incubated 24 h, HPLC-MS, also found in supernatant): Four metabolites were found | redox products in HAVSMCs ([9]; preliminary analysis of metabolic components): no redox products | cell inhibition rate [10]: less than 10% | melting point: 144 to 156 °C | solubility at 48 h [11]: 509 ± 49 µg/mL (≈ 1110 µM)

sodium daidzein sulphonate
anti-hypoxic-ischaemic effect [12]: obviously better than that of DAI

Reference: paper PMC7890489, “Study on pharmacological properties and cell absorption metabolism of novel daidzein napsylates” (Royal Society Open Science, 2021)
